Results published in ChEMBL document CHEMBL5696442, “Discovery of type II inhibitors of TGFβ-activated kinase 1 (TAK1) and mitogen-activated protein kinase kinase kinase kinase 2 (MAP4K2)” (J Med Chem, 2015).

Experiments:
[1] = molecular target: Cyclin-dependent kinase 5 (Homo sapiens) (UniProt Q00535); assay: Inhibition of CDK5 Lys2 labeling site harbouring DLKPQNLLINR in human Huh-7 cell lysate at 1 uM by KiNativ Profiling analysis relative to control; assay type: subcellular
[2] = molecular target: Cyclin-dependent kinase 1 (Homo sapiens) (UniProt P06493); assay: Inhibition of CDC2 K2 labeling site harbouring DLKPQNLLIDDKGTIK in human Huh-7 cells at 10 uM by KiNativ Profiling analysis relative to control; assay type: cell-based
Chain of Cyclin-dependent kinase 1 (Homo sapiens) (P06493 whole entry, looked up): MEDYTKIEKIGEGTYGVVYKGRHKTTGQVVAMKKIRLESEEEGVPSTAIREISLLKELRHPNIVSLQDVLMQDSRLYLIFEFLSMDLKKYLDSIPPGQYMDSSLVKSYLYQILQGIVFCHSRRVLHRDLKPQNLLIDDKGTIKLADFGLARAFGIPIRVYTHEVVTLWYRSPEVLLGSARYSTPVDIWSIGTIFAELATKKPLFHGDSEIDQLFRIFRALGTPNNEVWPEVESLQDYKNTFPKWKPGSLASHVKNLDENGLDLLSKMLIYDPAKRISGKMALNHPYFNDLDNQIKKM

[3] = molecular target: Microtubule-associated serine/threonine-protein kinase 2 (Homo sapiens) (UniProt Q6P0Q8); assay: Inhibition of MAST2 Lys2 labeling site in human A-375 cells at 5 uM by KiNativ Profiling analysis relative to control; assay type: cell-based
Chain of Microtubule-associated serine/threonine-protein kinase 2 (Homo sapiens) (Q6P0Q8 whole entry): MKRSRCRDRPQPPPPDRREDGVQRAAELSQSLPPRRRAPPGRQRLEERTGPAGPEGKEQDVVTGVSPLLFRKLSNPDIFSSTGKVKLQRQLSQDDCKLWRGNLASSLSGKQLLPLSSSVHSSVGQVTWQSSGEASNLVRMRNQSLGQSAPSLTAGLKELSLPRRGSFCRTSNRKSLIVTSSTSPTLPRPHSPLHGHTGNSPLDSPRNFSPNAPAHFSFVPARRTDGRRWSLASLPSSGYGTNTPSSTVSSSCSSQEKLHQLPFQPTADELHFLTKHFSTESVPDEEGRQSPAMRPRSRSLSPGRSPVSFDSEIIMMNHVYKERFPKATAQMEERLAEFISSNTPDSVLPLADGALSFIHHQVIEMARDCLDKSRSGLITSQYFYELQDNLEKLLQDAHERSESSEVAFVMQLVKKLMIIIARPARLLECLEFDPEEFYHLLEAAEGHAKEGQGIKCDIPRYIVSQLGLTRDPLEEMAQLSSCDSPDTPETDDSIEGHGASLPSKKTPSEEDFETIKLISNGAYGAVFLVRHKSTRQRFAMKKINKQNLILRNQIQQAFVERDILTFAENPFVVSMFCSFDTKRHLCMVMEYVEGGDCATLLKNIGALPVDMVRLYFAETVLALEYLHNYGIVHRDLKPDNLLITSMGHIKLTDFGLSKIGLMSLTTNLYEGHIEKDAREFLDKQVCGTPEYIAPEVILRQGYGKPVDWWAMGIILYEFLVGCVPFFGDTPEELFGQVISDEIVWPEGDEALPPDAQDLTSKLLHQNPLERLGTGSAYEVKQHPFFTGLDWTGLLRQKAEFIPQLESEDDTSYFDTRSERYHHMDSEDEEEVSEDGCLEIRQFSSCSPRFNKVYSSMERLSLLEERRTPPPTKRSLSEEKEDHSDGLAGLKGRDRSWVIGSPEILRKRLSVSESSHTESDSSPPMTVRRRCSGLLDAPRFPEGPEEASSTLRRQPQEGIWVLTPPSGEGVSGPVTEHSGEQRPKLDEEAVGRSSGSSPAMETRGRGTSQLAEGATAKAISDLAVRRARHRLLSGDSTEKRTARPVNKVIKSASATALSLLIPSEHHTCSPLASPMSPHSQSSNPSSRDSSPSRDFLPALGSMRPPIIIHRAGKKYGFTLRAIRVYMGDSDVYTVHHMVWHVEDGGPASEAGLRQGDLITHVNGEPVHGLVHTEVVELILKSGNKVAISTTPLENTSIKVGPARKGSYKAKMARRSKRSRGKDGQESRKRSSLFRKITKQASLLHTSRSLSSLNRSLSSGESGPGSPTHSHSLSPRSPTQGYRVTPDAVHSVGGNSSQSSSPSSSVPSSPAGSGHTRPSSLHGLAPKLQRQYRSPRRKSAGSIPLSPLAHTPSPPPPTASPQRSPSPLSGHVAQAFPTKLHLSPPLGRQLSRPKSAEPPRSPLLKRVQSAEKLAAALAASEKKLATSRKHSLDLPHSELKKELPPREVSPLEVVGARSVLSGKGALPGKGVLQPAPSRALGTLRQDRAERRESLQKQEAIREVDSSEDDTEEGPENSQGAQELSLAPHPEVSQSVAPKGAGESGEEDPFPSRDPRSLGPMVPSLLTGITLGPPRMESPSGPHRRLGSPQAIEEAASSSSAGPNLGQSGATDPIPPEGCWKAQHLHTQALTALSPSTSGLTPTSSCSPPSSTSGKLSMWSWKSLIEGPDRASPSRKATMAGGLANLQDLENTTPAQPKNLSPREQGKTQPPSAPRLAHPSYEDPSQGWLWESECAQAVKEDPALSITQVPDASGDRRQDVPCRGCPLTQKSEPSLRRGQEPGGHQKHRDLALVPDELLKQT

[4] = molecular target: T1, Dual specificity mitogen-activated protein kinase kinase 6 (Homo sapiens) (UniProt P52564); assay: Inhibition of MAP2K6 Lys1 labeling site in human A-375 cells at 0.05 uM by KiNativ Profiling analysis relative to control; assay type: cell-based
T1 sequence (whole entry): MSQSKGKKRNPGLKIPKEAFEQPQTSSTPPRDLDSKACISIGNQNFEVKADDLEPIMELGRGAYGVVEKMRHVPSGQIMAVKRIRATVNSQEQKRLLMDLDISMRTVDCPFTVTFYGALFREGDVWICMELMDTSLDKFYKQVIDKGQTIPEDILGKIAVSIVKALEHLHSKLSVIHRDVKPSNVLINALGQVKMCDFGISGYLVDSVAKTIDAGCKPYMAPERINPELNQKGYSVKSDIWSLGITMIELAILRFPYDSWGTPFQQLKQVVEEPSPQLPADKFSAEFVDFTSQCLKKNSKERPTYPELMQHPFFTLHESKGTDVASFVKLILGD

[5] = molecular target: Ribosomal protein S6 kinase alpha-1 (Homo sapiens) (UniProt Q15418); assay: Inhibition of RSK1 domain1 Lys1 labeling site in human A-375 cells at 0.5 uM by KiNativ Profiling analysis relative to control; assay type: cell-based
[6] = molecular target: Calcium/calmodulin-dependent protein kinase type II subunit gamma (Homo sapiens) (UniProt Q13555); assay: Inhibition of CAMK2g K1 labeling site harbouring KTSTQEYAAKIINTK in human Huh-7 cells at 10 uM by KiNativ Profiling analysis relative to control; assay type: cell-based
Chain of Calcium/calmodulin-dependent protein kinase type II subunit gamma (Homo sapiens) (Q13555 whole entry): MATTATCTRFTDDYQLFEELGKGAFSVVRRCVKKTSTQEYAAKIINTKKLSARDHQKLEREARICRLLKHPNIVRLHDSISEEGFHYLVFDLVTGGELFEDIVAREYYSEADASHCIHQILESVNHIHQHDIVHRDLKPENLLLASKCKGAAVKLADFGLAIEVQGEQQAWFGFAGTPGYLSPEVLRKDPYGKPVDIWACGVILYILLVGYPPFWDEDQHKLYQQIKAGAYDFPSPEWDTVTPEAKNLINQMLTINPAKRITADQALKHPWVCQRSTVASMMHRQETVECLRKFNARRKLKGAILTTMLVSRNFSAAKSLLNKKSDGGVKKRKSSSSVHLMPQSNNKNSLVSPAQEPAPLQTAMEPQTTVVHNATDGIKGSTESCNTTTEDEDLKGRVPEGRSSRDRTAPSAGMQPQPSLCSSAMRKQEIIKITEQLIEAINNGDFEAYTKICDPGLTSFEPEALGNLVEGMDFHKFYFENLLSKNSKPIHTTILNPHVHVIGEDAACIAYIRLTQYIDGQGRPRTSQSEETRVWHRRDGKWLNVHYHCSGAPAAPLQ

[7] = tested on: Epidermal growth factor receptor (Homo sapiens), P00533 [G719S]; assay: Inhibition of EGFR G719S mutant (unknown origin) at 1 uM by Ambit Kinomescan binding assay relative to control
[8] = molecular target: Insulin-like growth factor 1 receptor (Homo sapiens) (UniProt P08069); assay: Inhibition of IGF1R (unknown origin) at 1 uM by Ambit Kinomescan binding assay relative to control; values are per cent of control
Chain of Insulin-like growth factor 1 receptor (Homo sapiens) (P08069 31-736 limits assumed): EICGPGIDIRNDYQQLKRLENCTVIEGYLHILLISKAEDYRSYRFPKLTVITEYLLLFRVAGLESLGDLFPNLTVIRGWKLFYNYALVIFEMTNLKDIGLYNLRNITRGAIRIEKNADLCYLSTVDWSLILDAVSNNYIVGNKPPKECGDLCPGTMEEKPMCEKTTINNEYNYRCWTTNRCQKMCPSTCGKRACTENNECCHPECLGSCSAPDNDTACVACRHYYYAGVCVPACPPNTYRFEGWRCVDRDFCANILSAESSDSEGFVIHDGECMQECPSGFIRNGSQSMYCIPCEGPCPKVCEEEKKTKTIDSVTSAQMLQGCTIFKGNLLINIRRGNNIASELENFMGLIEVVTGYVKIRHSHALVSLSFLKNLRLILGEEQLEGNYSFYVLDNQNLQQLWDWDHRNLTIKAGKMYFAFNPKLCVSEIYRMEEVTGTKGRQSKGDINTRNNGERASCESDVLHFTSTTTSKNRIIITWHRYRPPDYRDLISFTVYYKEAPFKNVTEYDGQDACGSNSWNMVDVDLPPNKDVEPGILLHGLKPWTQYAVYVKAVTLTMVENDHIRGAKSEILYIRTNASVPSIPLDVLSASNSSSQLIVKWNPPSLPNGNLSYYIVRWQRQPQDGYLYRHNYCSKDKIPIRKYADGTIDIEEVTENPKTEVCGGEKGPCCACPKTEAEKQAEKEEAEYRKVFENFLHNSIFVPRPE
Chain of Insulin-like growth factor 1 receptor (Homo sapiens) (P08069 741-1367 limits assumed): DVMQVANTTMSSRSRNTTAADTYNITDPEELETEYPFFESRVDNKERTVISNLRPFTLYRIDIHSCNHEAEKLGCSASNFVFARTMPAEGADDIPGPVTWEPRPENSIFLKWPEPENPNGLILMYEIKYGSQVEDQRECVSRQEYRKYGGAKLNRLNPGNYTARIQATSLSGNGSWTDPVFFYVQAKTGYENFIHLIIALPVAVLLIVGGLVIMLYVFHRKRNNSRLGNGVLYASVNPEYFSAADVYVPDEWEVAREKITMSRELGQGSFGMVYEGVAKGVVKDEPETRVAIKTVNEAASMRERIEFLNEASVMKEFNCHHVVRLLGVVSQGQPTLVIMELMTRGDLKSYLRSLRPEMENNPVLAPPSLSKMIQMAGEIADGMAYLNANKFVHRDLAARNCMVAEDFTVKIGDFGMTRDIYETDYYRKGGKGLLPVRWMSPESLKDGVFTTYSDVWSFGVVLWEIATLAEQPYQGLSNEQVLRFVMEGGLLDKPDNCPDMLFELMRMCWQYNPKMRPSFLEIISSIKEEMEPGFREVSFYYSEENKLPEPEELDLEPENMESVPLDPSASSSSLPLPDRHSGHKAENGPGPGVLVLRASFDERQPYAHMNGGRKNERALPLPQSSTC

[9] = molecular target: T2, Acylglycerol kinase, mitochondrial (Homo sapiens) (UniProt Q53H12); assay: Inhibition of AGK ATP labeling site in human A-375 cells at 5 uM by KiNativ Profiling analysis relative to control; assay type: cell-based
T2 sequence (whole entry): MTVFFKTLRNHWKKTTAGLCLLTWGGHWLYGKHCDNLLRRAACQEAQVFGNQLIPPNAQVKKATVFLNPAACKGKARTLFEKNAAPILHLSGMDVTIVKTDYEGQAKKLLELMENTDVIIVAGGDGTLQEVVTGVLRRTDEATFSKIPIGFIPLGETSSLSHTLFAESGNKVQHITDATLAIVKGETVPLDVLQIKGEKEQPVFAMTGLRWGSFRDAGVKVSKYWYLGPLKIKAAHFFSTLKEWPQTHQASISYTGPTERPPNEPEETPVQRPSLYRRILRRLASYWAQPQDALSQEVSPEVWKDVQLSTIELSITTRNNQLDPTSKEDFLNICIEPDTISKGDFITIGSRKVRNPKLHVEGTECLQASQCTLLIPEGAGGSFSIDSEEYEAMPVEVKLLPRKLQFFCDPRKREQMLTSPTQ

[10] = molecular target: T3, Mitogen-activated protein kinase kinase kinase 7 (Homo sapiens) (UniProt O43318); assay: Inhibition of TAK1 (unknown origin) at 1 uM by Ambit Kinomescan binding assay relative to control; values are per cent of control
T3 sequence (whole entry): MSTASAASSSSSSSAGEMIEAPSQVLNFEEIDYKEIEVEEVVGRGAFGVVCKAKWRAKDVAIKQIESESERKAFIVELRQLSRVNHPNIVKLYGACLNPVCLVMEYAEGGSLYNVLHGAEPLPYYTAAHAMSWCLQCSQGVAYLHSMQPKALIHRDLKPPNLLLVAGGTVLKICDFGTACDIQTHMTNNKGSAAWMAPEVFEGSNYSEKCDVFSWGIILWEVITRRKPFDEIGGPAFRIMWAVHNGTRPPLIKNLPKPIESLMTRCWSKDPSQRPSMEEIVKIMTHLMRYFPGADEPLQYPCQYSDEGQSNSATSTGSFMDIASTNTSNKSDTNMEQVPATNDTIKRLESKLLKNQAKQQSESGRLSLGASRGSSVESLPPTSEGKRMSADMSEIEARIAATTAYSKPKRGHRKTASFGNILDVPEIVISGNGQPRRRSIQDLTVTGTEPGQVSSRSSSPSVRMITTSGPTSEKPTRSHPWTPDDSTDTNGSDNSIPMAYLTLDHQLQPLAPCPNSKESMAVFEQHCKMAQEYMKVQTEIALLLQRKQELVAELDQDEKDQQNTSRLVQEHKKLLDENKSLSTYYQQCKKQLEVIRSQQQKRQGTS

[11] = molecular target: Serine/threonine-protein kinase PAK 3 (Homo sapiens) (UniProt O75914); assay: Inhibition of PAK3 (unknown origin) at 1 uM by Ambit Kinomescan binding assay relative to control; values are per cent of control
Chain of Serine/threonine-protein kinase PAK 3 (Homo sapiens) (O75914 whole entry, looked up): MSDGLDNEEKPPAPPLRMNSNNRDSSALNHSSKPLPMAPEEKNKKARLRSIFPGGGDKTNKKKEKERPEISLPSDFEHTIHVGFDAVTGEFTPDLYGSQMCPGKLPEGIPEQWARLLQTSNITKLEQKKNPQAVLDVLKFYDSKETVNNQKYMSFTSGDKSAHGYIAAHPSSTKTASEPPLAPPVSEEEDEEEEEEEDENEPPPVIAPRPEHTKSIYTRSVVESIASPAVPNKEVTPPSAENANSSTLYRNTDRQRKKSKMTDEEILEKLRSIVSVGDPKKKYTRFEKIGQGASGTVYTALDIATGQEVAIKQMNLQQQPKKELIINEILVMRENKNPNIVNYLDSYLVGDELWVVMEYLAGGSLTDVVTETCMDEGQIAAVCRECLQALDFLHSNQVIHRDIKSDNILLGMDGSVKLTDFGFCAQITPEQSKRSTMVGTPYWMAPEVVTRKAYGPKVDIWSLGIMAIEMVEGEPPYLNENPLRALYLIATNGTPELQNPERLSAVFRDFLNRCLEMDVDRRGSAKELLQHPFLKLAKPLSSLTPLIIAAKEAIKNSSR

Chain of Cyclin-dependent kinase 5 (Homo sapiens) (Q00535 whole entry, looked up): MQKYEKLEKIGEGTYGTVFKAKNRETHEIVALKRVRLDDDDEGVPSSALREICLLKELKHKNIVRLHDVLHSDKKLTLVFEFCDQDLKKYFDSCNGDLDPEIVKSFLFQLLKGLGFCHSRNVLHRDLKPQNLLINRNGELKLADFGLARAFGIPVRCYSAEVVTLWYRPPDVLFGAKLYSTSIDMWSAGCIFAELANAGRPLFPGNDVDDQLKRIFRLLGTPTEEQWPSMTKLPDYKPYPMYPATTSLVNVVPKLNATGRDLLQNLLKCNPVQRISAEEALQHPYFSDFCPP

## CNc1cc(Oc2cc(C(=O)Nc3cc(N4CCN(C)CC4)cc(C(F)(F)F)c3)ccc2C)ncn1
[1]
  inhibition: 2.6%

## CCN1CCN(Cc2ccc(NC(=O)c3ccc(C)c(Oc4ccnc5[nH]ccc45)c3)cc2C(F)(F)F)CC1
[2]
  inhibition: -1.7%
[3]
  inhibition: -6.1%
[4]
  inhibition: 4%
[5]
  inhibition: -0.7%
[6]
  inhibition: 6.1%

## CCN1CCN(Cc2ccc(NC(=O)c3ccc(C)c(/C=C/c4cnc5[nH]ccc5c4OC)c3)cc2C(F)(F)F)CC1
[7]
  inhibition: 0.9%
[8]
  residual activity: 100%
[9]
  inhibition: 9.9%
[10]
  percent of control: 1.2%
[11]
  residual activity: 66%
